Experimental data from patent US20060014704A1, “Compounds and their preparation for the treatment of Alzheimer's disease by inhibiting beta-amyloid peptide production” (priority 2004, published 2006).
Entries after “also recorded” stand apart in the source; their conditions may differ. Where two headings read alike, the source gives them in different places.

Columns and labels:
[1] = target: T1, γ-secretase cleavage of APP (AICD) (Homo sapiens, UniProt P49768); assay: Cell-free generation of AICD from membrane fractions of 293 cells overexpressing APP; type: biochemical
T1 construct: Membrane fractions isolated from 293 cells overexpressing either APP (A), Notch-AE (B) or p75-AE (C); endogenous in cells; host or cells: 293 cells (membrane fractions); only the substrates APP, Notch-ΔE and p75-ΔE are overexpressed
Protocol: (§1) Membrane fractions isolated from 293 cells overexpressing either APP (A), Notch-AE (B) or p75-AE (C) and incubated in the presence of indicated compounds: Compound E (CpdE, general γ-secretase inhibitor), Rgk351, Rk1 and sulindac sulfide (SS).

[2] = target: T2, γ-secretase cleavage of Notch1 (NICD) (Homo sapiens, UniProt P49768); assay: Cell-free generation of NICD from membrane fractions of 293 cells overexpressing Notch-AE; type: biochemical
T2 construct: Membrane fractions isolated from 293 cells overexpressing either APP (A), Notch-AE (B) or p75-AE (C); endogenous in cells; host or cells: 293 cells (membrane fractions); only the substrates APP, Notch-ΔE and p75-ΔE are overexpressed
Protocol: as §1

[3] = target: T3, γ-secretase cleavage of p75 neurotrophin receptor (p75-ICD) (Homo sapiens, UniProt P49768); assay: Cell-free generation of p75-ICD from membrane fractions of 293 cells overexpressing p75-AE; type: biochemical
T3 construct: Membrane fractions isolated from 293 cells overexpressing either APP (A), Notch-AE (B) or p75-AE (C); endogenous in cells; host or cells: 293 cells (membrane fractions); only the substrates APP, Notch-ΔE and p75-ΔE are overexpressed
Protocol: as §1

[4] = system: Aβ40 and Aβ42 production, CHO cells stably transfected with human APP695; assay: Secreted Aβ40/Aβ42 ELISA in CHO cells expressing human APP (CHO-APP cells); type: cell-based, Chinese hamster; set-up: key to Aβ42-lowering activity: Aβ42-lowering activity (“Yes”); no profound effects (“No”); non-determined (“ND”); Ginsenosides that affected cell viability are indicated as “Cytotoxic.”; conditions: for Aβ42-lowering activity: summary of Tables 1-3; for inhibitory effects on Aβ40 production / inhibitory effects on Aβ42 production: ginsenosides of unprocessed ginseng, 8 hours, FIG. 10 (50 μM); for levels of Aβ42 / production of Aβ42: CHO cells expressing wild-type human APP, PPT/PT
Protocol: The CHO cells were treated with the indicated compounds (at 50 μg/ml) for 8 hrs. Aβ42 levels in the medium were measured by ELISA and normalized to intracellular full-length APP.
The potential effects of ginsenosides and their analogues in treating AD were examined. First, a number of ginsenosides were screened based on their effects on Aβ generation. The effects of various ginsenosides on Aβ (e.g., Aβ40 and Aβ42) production was initially accessed by incubating the Chinese hamster ovary (CHO) cells expressing human APP(CHO-APP cells) with each ginsenoside purified from unprocessed ginseng (known as “white ginseng”). These representative ginsenosides included Rb1, Rb2, Rc, Rd, Re, Re, Rg1 and Rg2 and differ in their side chains and sugar moieties.
After 8 hours of incubation, the media were collected and the levels of secreted Aβ40 and Aβ42 were determined by ELISA.

[5] = system: Aβ40 and Aβ42 production, CHO-APP/PS1 cells; assay: Secreted Aβ ELISA in CHO-APP/PS1 cells (wild-type PS1); type: cell-based, Chinese hamster; conditions: 50 μM, 8 hrs, FIG. 11; for secretion of Aβ42: heat-processing derived ginsenosides
Protocol: The effects of Rg5 on the Aβ42 generation were much smaller as compared to Rgk351 and Rk1.
FIG. 10 depicts the effects of native ginsenosides on Aβ42 production. CHO cells stably transfected with human APP695 together with either wild-type (A, CHO-APP/PS1 cells) or ΔE9 FAD mutant (B, CHO-APP/ΔE9PS1 cells) forms of PS1 were used. Cells were treated with the indicated compounds (at 50 μM) for 8 hrs. Levels of secreted Aβ40 and Aβ42 in the medium were determined by ELISA and normalized to intracellular full-length APP. In CHO-APP/PS1 cells, average Aβ amounts in control samples were 320 pM for Aβ40 and 79 pM for Aβ42. The relative levels of Aβ and Aβ42 were normalized to values obtained from non-treated and vehicle-treated cells and are shown as % to control+s.d.). One of three representative experiments are shown.
CHO-APP/PS1 (A) and CHO-APP/ΔE9PS1 (B) cells were treated with the indicated compounds at 50 μM for 8 hrs and the levels of secreted Aβ40 and Aβ42 were determined as described in FIG. 1. […] The PS1-ΔE9 FAD mutation diminished the Aβ42 response to Rk1 treatment (B).

[6] = target: γ-secretase (Homo sapiens, UniProt P49768); assay: Cell-free γ-secretase assay (CHAPSO-solubilized membrane fractions, recombinant substrates, Aβ ELISA); type: biochemical; conditions: cell-free γ-secretase assay, FIG. 15 (100 μM in A)
Protocol: (A) CHAPSO-solubilized membrane fractions were incubated with recombinant γ-secretase substrates together with the indicated compounds (at 100 μM) and the levels of Aβ42 and Aβ40 were determined by ELISA as described (27-29). (B) Dose-response of Aβ40 and Aβ42-lowering activity of Rk1 and (20S)Rg3 in a cell-free γ-secretase assay.
Next, the inhibitory effects of Rk1 and (20S)Rg3 on Aβ generation in an in vitro γ-secretase assay was studied. […] In contrast, naproxen, an NSAID without Aβ42-lowering activity, had no effects on Aβ42 production (FIG. 15A).

[7] = system: Aβ40 and Aβ42 generation, Neuro2a-SW cells; assay: Aβ generation in Neuro2a cells expressing human Swedish mutant APP (Neuro2a-SW); type: cell-based, mouse; conditions: FIG. 16; for levels of Aβ42 / production of Aβ42: Neuro2a-SW
Excerpt: FIG. 16 depicts the effects of two major metabolites of ginsenosides, including 20(S)-protopanaxatriol (PPT) and 20(S)-protopanaxadiol (PPD) on Aβ42 generation. 20(S)-panaxatriol (PT) and 20(S)-panaxadiol (PD) are the artificial derivatives of PPT and PPPD, respectively.
Ginsenosides are metabolized by human intestinal bacteria after oral administration of ginseng extract (Kobayashi K., et al., Metabolism of ginsenoside by human intestinal bacteria [II] Ginseng Review 1994; 18: 10-14; Hasegawa H., et al., Main ginseng saponin metabolites formed by intestinal bacteria. Planta Med. 1996; 62: 453-457.). Therefore, the effects of two major metabolites of ginsenosides, including 20(S)-protopanaxatriol (PPT) and 20(S)-protopanaxadiol (PPD) on Aβ42 generation were tested. 20(S)-panaxatriol (PT) and 20(S)-panaxadiol (PD) are the artificial derivatives of PPT and PPPD, respectively.

[8] = system: Aβ42 production in mammalian cells; conditions: Tae-Wan Kim et al.; cited from earlier work

## C[C@H](NC(=O)Cc1cc(F)cc(F)c1)C(=O)N[C@H]1N=C(c2ccccc2)c2ccccc2N(C)C1=O [Compound E]
[1]
  cell-free generation of AICD: efficiently inhibited
[1]; listed as Cpd.E
  cell-free generation of AICD: Very low amounts
[2]
  cell-free generation of NICD: efficiently inhibited
[2]; listed as Cpd.E
  cell-free generation of NICD: Very low amounts
[3]
  cell-free generation of p75-ICD: efficiently inhibited
[3]; listed as Cpd.E
  cell-free generation of p75-ICD: Very low amounts

## CC(C)=CCC[C@](C)(O)[C@H]1CC[C@]2(C)[C@@H]1[C@H](O)C[C@@H]1[C@@]3(C)CC[C@H](O)C(C)(C)[C@@H]3[C@@H](O[C@@H]3O[C@H](CO)[C@@H](O)[C@H](O)[C@H]3O)C[C@]12C [Rh1]
[4]
  Aβ42-lowering activity: No
[5]
  secretion of Aβ42: not significant; also recorded: not affected

## CC(C)=CCC[C@](C)(O)[C@H]1CC[C@]2(C)[C@@H]1[C@H](O)C[C@@H]1[C@@]3(C)CC[C@H](O)C(C)(C)[C@@H]3[C@@H](O[C@@H]3O[C@H](CO)[C@@H](O)[C@H](O)[C@H]3O[C@@H]3O[C@@H](C)[C@H](O)[C@@H](O)[C@H]3O)C[C@]12C [Rg2]
[4]
  inhibitory effects on Aβ40 production: None
  inhibitory effects on Aβ42 production: None
  Aβ42-lowering activity: No

## CSc1ccc(/C=C2/C(C)=C(CC(=O)O)c3cc(F)ccc32)cc1 [sulindac sulfide]
[4]; overnight treatment, FIG. 12B
  Aβ40 production: slightly affected
[1]; listed as SS
  cell-free generation of AICD: abundantly produced
[1]; listed as sulinac sulfide
  cell-free generation of AICD: did not affect
[2]; listed as SS
  cell-free generation of NICD: abundantly produced
[2]; listed as sulinac sulfide
  cell-free generation of NICD: did not affect
[3]; listed as SS
  cell-free generation of p75-ICD: abundantly produced
[3]; listed as sulinac sulfide
  cell-free generation of p75-ICD: did not affect
[6]
  Aβ42 generation in vitro: potently inhibited

## COc1ccc2cc([C@H](C)C(=O)O)ccc2c1 [naproxen, reference compound]
[6]
  Aβ42 generation in vitro: no effects

## C=C(CCC=C(C)C)[C@H]1CC[C@]2(C)[C@@H]1[C@H](O)C[C@@H]1[C@@]3(C)CC[C@H](O)C(C)(C)[C@@H]3[C@@H](O[C@@H]3O[C@H](CO)[C@@H](O)[C@H](O)[C@H]3O)C[C@]12C [Rk3]
[4]
  Aβ42-lowering activity: No

## CC(C)=CCCC(C)(O)C1CCC2(C)C1C(O)CC1C3(C)CCC(OC4OC(CO)C(O)C(O)C4OC4OC(CO)C(O)C(O)C4O)C(C)(C)C3CCC12C [(20R)Rg3]
[4]; 50 μg/ml, 8 hrs, FIG. 4
  generation of Aβ42 (Aβ42 levels in the medium, ELISA, normalized to intracellular full-length APP): reduce the generation of Aβ42
[4]
  Aβ42-lowering activity: Yes
[5]
  potency of Aβ42-reducing activity (rank): Rk1>/=(20S)Rg3>Rg5>(20R)Rg3
  secretion of Aβ42: not affected

## CC1(C)CCC[C@](C)([C@H]2CC[C@]3(C)[C@@H]2[C@H](O)C[C@@H]2[C@@]4(C)CC[C@H](O)C(C)(C)[C@@H]4CC[C@]23C)O1 [PD, 20(S)-panaxadiol]
[7]
  inhibitory effects on Aβ40 generation: did not confer any inhibitory effects
  inhibitory effects on Aβ42 generation: did not confer any inhibitory effects

## CC(C)=CCC[C@](C)(O[C@@H]1O[C@H](CO)[C@@H](O)[C@H](O)[C@H]1O)[C@H]1CC[C@]2(C)[C@@H]1[C@H](O)C[C@@H]1[C@@]3(C)CC[C@H](O)C(C)(C)[C@@H]3[C@@H](O[C@@H]3O[C@H](CO)[C@@H](O)[C@H](O)[C@H]3O)C[C@]12C [Rg1]
[4]
  inhibitory effects on Aβ40 production: None
  inhibitory effects on Aβ42 production: None
  Aβ42-lowering activity: No
[8]
  amyloid-reducing activity in vitro: no amyloid-reducing activity in vitro

## CC(C)=CCC[C@](C)(O[C@@H]1O[C@H](CO[C@@H]2O[C@H](CO)[C@@H](O)[C@H](O)[C@H]2O)[C@@H](O)[C@H](O)[C@H]1O)[C@H]1CC[C@]2(C)[C@@H]1[C@H](O)C[C@@H]1[C@@]3(C)CC[C@H](O[C@@H]4O[C@H](CO)[C@@H](O)[C@H](O)[C@H]4O[C@@H]4O[C@H](CO)[C@@H](O)[C@H](O)[C@H]4O)C(C)(C)[C@@H]3CC[C@]12C [Rb1]
[4]
  inhibitory effects on Aβ40 production: None
  inhibitory effects on Aβ42 production: None
  Aβ42-lowering activity: No

## CC(C)=CC/C=C(\C)[C@H]1CC[C@]2(C)[C@@H]1[C@H](O)C[C@@H]1[C@@]3(C)CC[C@H](O)C(C)(C)[C@@H]3[C@@H](O[C@@H]3O[C@H](CO)[C@@H](O)[C@H](O)[C@H]3O)C[C@]12C [Rh4]
[4]
  Aβ42-lowering activity: No

## CC(C)=CCC[C@](C)(O)[C@H]1CC[C@]2(C)[C@@H]1[C@H](O)C[C@@H]1[C@@]3(C)CC[C@H](O)C(C)(C)[C@@H]3[C@@H](O)C[C@]12C [PPT, 20(S)-protopanaxatriol]
[4]
  levels of Aβ42: without affecting
  production of Aβ42: reduced the production of Aβ42
  Aβ42-lowering activity: Yes
[7]
  levels of Aβ42: without affecting
  production of Aβ42: reduced the production of Aβ42

## CC(C)=CCC[C@](C)(O)[C@H]1CC[C@]2(C)[C@@H]1[C@H](O)C[C@@H]1[C@@]3(C)CC[C@H](O)C(C)(C)[C@@H]3CC[C@]12C [PPD, 20(S)-protopanaxadiol]
[4]
  Aβ42-lowering activity: No
[7]
  inhibitory effects on Aβ40 generation: did not confer any inhibitory effects
  inhibitory effects on Aβ42 generation: did not confer any inhibitory effects

## CC1(C)CCC[C@](C)([C@H]2CC[C@]3(C)[C@@H]2[C@H](O)C[C@@H]2[C@@]4(C)CC[C@H](O)C(C)(C)[C@@H]4[C@@H](O)C[C@]23C)O1 [PT, 20(S)-panaxatriol]
[4]
  levels of Aβ42: without affecting
  production of Aβ42: reduced the production of Aβ42
[7]
  levels of Aβ42: without affecting
  production of Aβ42: reduced the production of Aβ42

## CC(C)=CCC[C@](C)(O[C@@H]1O[C@H](CO[C@@H]2OC[C@H](O)[C@H](O)[C@H]2O)[C@@H](O)[C@H](O)[C@H]1O)[C@H]1CC[C@]2(C)[C@@H]1[C@H](O)C[C@@H]1[C@@]3(C)CC[C@H](O[C@@H]4O[C@H](CO)[C@@H](O)[C@H](O)[C@H]4O[C@@H]4O[C@H](CO)[C@@H](O)[C@H](O)[C@H]4O)C(C)(C)[C@@H]3CC[C@]12C [Rb2]
[4]
  inhibitory effects on Aβ40 production: None
  inhibitory effects on Aβ42 production: None
  Aβ42-lowering activity: No

## CC(C)=CCC[C@](C)(O[C@@H]1O[C@H](CO[C@@H]2OC[C@@H](O)[C@H](O)[C@H]2O)[C@@H](O)[C@H](O)[C@H]1O)[C@H]1CC[C@]2(C)[C@@H]1[C@H](O)C[C@@H]1[C@@]3(C)CC[C@H](O[C@@H]4O[C@H](CO)[C@@H](O)[C@H](O)[C@H]4O[C@@H]4O[C@H](CO)[C@@H](O)[C@H](O)[C@H]4O)C(C)(C)[C@@H]3CC[C@]12C [Rb3]
[4]
  Aβ42-lowering activity: No
